Reference: patent publication US10450327B2, “Epidithiodioxopiperazine compound or its derivatives, and the use thereof” (priority 2011, dated 2019)

Legend:
[1] = test system: VEGFR2 and ERK; assay: VEGF-induced signaling, immunoblot, PrxII knocked down HAECs; assay type: cell-based, human; details: 2 hours pretreatment, VEGF 10 minutes
Procedure: The cells were rinsed with an ice-cold phosphate buffered saline (PBS) solution and then lysed in an extraction buffer solution containing 20 mM Hepes (pH 7.0), 1% Triton X-100, 150 mM NaCl, 10% glycerol, 1 mM EDTA, 2 mM EGTA, 1 mM DTT, 5 mM Na3VO4, 5 mM NaF, 1 mM AEBSF, aprotinin (5 μg/ml), and leupeptin (5 μg/ml). After being centrifuged at 12,000×g, the purified cell extracts were used for immunoblotting. In order to adjust the loading, the membranes were stripped by shaking them for 30 minutes at 60° C. in 67 mM Tris (pH 6.7), 2% SDS, and 100 mM 2-mercaptoethanol solution, and reprobed with an appropriate pan antibody.
In addition, the regulatory effects of GT on the PDGFRβ- and VEGFR2-mediated signaling pathway were examined. The GT treatment in HASMCs was quite different from PDGF-induced tyrosine phosphorylation that was enhanced by the PrxII knockdown (FIG. 12a). […] Conversely, the GT treatment in HAECs restored the VEGF-dependent activation of VEGFR2 and ERK that had been diminished by the PrxII knockdown (FIG. 12b). The effects of GT in vascular cell fuction were further validated.
Lastly, the effects of GT, a representative ETP compound, on vascular cells were compared with the effects of other compounds known as anti-oxidant compounds such as N-acetylcysteine or butylated hydroxyanisole, and the results are shown in FIG. 33. Immunoblotting was performed by pretreating HAECs in which PrxII was knocked down by injecting siRNA with each compound at the concentrations indicated in the graphs for two hours, and then treating with VEGF for 10 minutes. […] These comparative experiments led the inventors of the present invention to conclude that the distinguished […] function of the ETP compounds is clearly due to the PrxII-analogous activity, and additionally to the special chemical property of the dithioketopiperazine ring.

[2] = test system: yeast thioredoxin (Trx) / yeast thioredoxin reductase (TR) system; assay: Peroxidase activity assay (hydrogen peroxide reduction), Trx/TR system; assay type: biochemical
Procedure: (§1) The peroxidase activity assay for the epidithiodioxopiperazine derivatives according to the present invention (hereinafter, referred to as ETP compounds) was performed according to known methods [Korean Patent No. 10-0953326]. A standard peroxidase reaction for spectrophotometric assay was carried out using a 200 μl reaction mixture of 1 mM EDTA-containing 50 mM Hepes-NaOH buffer solution (pH 7.0) including 250 μM NADPH, 3 μM yeast thioredoxin (Trx), 1.5 μM yeast thioredoxin reductase (TR), 25 μM ETP compound and […] of hydrogen peroxide. For the comparison with a glutathione (GSH)-dependent peroxidase reaction, GSH (1 mM) and yeast glutathione reductase (GSH reductase; GR) (1 Unit) were added instead of yeast Trx and TR. Each reaction was initiated by adding hydrogen peroxide, and the NADPH oxidation was monitored for 12 minutes at 30° C. according to absorbance decrease at 340 nm using an Agilent UV8453 spectrophotometer (Hewlett Packard, USA). The initial reaction rate was calculated using the linear portion of the curve and expressed as the amount of NADPH oxidized per minute.
The chemical feature of the epidithiodioxopiperazine compound of the present invention or its derivatives is the intramolecular disulfide bridge present in the epidithiodioxopiperazine ring moiety. Cellular peroxidase reduces hydrogen peroxide utilizing the electrons derived from NADPH via two electron-transfer routes, that is, Trx/TR or GSH/GR, therefore, spectrophotometric assay was performed for the hydrogen peroxide-reducing activity in the presence of each system, and the results are shown in FIGS. 1 to 5.

[3] = test system: HAECs; assay type: cell-based, human; details: up to 50 nM (100 nM for A4, A7, A9)
Procedure: For cell proliferation assay, HAECs were divided at a concentration of 4000 cells/well in a final volume of 100 μl onto a 96-well plate including a siRNA-transfection reagent mixture. After siRNA-transfected for 24 hours, the cells were serum-starved for 18 hours, and then placed in an EBM-2 basal medium supplemented with VEGF-A165 (25 ng/ml, Cat no. 293-VE, R&D systems) for additional 24 hours. The extent of cell proliferation was measured using a WST-1 cell proliferation assay kit (Roche Diagnostics, USA), and the number of cells was expressed as absorbance at 450 nm, which was averaged from 3 wells after subtracting the turbidity at 600 nm.
The cell migration assay was performed in a 24-well Transwell culture chamber (Costar; 8-μm pore size). The bottom of the filter was coated with gelatin B (1 mg/ml) and air-dried for 1 hour. HAECs (6×10^3) were added to upper chambers including siRNA-transfection complexes. After 24 hours, the siRNA-transfected HAECs were serum-starved overnight. A solution of VEGF-A (25 ng/ml) was prepared in a basal medium including 0.5% bovine serum albumin (BSA), and added to bottom chambers. The upper chamber wells were each filled with a basal medium including 0.5% BSA. The Transwell chamber was incubated for 8 hours under the condition of 37° C./5% carbon dioxide. After the incubation, the non-migrated cells at the top of the filter were removed, and the cells that migrated onto the bottom of filter were fixed and stained with 0.6% hematoxylin and 0.5% eosin. The stained cells were photographed and counted. The number of migrating cells was averaged from 3 wells.

[4] = test system: HASMCs; assay type: cell-based, human; details: up to 100 nM (200 nM for A4, A7, A9)
[5] = test system: balloon-injured rat carotid artery; assay: Balloon-injury model of rat carotid artery; assay type: in vivo; details: local administration to the lumen through catheter, 30 minutes; ETP derivatives 200 nM; 10 days recovery
Procedure: Animal experiments were performed in compliance with the guidelines of Institutional Animal Care and Use Committee (IACUC) of the Ewha Womans University. Balloon injury was created using an infiltrated 2 F Fogarty balloon catheter in the left common carotid artery as follows: after the ten-week-old male Sprague-Dawley rats were anaesthetized by isoflurane gas (N2O:O2/70%:30%) inhalation, the left external carotid artery was exposed, and its branches were electrocoagulated. A catheter was pushed 1 cm in through the transverse arteriotomy of the external carotid artery, and the endothelial denudation was achieved by three passes along the common carotid artery. After the catheter was removed, the punched area was sealed and the clapped common carotid artery was opened for resuming the blood flow. Unless otherwise stated, the rats were recovered in a cage for 10 days, and subjected to histological and immunological analyses.
Rats were anesthetized, and the common carotid artery was excised after transcardiac perfusion-fixation with a heparinized saline solution containing 3.7% formaldehyde. The vessels were paraffin embedded and sectioned using a rotary microtome (Leica RM2255). Two serial tissue sections (4 μm in thickness) were obtained from the middle area of common carotid arteries, and stained with haematoxylin and eosin (HE). The luminal, internal elastic laminal, and external elastic laminal areas were measured using NIH Image v1.62. The intimal and medial areas were determined by subtracting the luminal area from the internal elastic area and subtracting the internal elastic area from the external elastic area. The values from the two serial sections for each rat were averaged for analysis.
For the in vivo injection of siRNA, a siRNA mixture specific to rat PrxII (200 nM) was premixed with a siPORT™ NeoFX™ reagent according to the instructions of the manufacturer (Ambion). Immediately after the balloon injury, the siRNA-injected mixture (200 μL) was injected through a catheter after briefly washed with Opti-MEM. After the incubation for 15 minutes, the blood flow was resumed. A siGLO-Red (Dharmacon), which is fluorescent dye-conjugated control siRNA, was used for optimizing in vivo injection efficiency. Similarly, the ETP compound (200 nM in DMSO) was injected through a catheter and incubated for 30 minutes.
Immunohistochemistry for the overoxidized 2-Cys Prxs was performed on the paraffin sections using an anti-Prx-SO2/3 antibody (1:1000 dilution). Briefly, the sections were de-waxed in xylene and rehydrated in ethanol, and subsequently the antigen retrieval was performed by boiling in a citric buffer solution (pH 6.0). After that, the sections were incubated with a primary antibody for 48 hours at 4° C. After washing three times with a phosphatebuffered saline solution, the sections were incubated with a peroxidase-conjugated secondary antibody and stained with a 3′,3′-diaminobenzidine (DAB) substrate solution. For negative staining, the Prx-502/3 antibody was blocked with the corresponding antigenic peptide (DFTFVC(SO2/3)PTEI). For indirect immunofluorescence staining, the paraffin sections were blocked with 5% normal rabbit serum (Vector Laboratories) in PBST (a PBS solution of 0.3% Triton X-100) for 1 hour at room temperature. The sections were then incubated overnight at 4° C. with the […] against rat smooth muscle α-actin (1:300 dilution) and rat CD31 (PECAM-1, 1:200 dilution). The nuclei were labeled with DAPI. After several PBST washes, the samples were incubated for 2 hours at room temperature with Alexa Fluor 568-conjugated donkey anti-mouse and Alexa Fluor 488-conjugated donkey anti-rabbit IgG antibodies. The fluorescence images were recorded on three random fields per tissue section at a screen magnification of 100× using a LSM 510 Meta confocal microscope equipped with argon and helium-neon lasers.
The paraffin sections were incubated for 10 minutes in PBS containing 0.1% Triton X-100. […]

[6] = test system: SK-MEL28 melanoma cells; assay type: cell-based, human; details: at a concentration of 100 nM; tested 0, 100, 200, 500 and 1000 nM
Procedure: Specifically, after chaetocin and chetomin was treated with SK-MEL28 melanoma cells at different concentrations (0, 100, 200, 500 and 1000 nM), the cell viability was checked, and the result is shown in FIG. 54A.

[7] = test system: GSH / yeast glutathione reductase (GR) system; assay: Peroxidase activity assay (hydrogen peroxide reduction), GSH/GR system; assay type: biochemical; details: 25 μM ETP compound, GSH 1 mM, GR 1 Unit
Procedure: as §1
The chemical feature of the epidithiodioxopiperazine compound of the present invention or its derivatives is the intramolecular disulfide bridge present in the epidithiodioxopiperazine ring moiety. […]

[8] = test system: B16F10 melanoma cells; assay: Metastasis of B16F10 melanoma cells to lung in mouse; assay type: in vivo; details: i.p. 5 times over 10 days after i.v. injection of B16F10 cells
Procedure: After B16F10 cells were temporarily transfected with PrxII siRNA for 24 hours and trypsinized, the cells were resuspended in a Hank's balanced salt solution (HBSS). The cell suspension was injected by intravenous injection to a C57/BL6 mouse (1×10^6 cells per mouse). The mouse was sacrified after 10 days, and the lung was removed after transcardia perfusion-fixation with a heparinized saline solution including 3.7% formaldehyde. The removed lung was paraffin embedded and sectioned using a rotary microtome (Leica RM2255). Two serial tissue sections (4 μm in thickness) were stained with haematoxylin and eosin. The melanoma tumor nodules metastasized from the surface of the lung and the HE-stained tissue sections were counted. In order to verify the effects of gliotoxin (GT), chaetocin and chetomin, the melanoma cells were intravenously injected to the C57/BL6 mouse, and then gliotoxin (300 mg/kg) was intraperitoneally injected for 5 times over 10 days.

[9] = test system: SK-MEL-28 (SK28) cells; assay: Melanoma proliferation and migration assay, SK28; assay type: cell-based, human; details: 100 nM, 1 hour pretreatment
Procedure: The extent of cell proliferation was measured using a WST-1 cell proliferation assay kit (Roche Diagnostics, USA) according to the protocol of the manufacturer. The number of cells was expressed as an absorbance value at 450 nm averaged from 3 wells after subtracting the turbidity at 600 nm. The chemotactic transmigration assay was performed in a 24-well Transwell culture chamber (Costar; polycarbonate membrane insert with 8-μm pore size). The bottom of the insert was coated with gelatin B (1 mg/ml) and air-dried for 1 hour. Retroviruses or transfection complexes were treated to melanoma cells (6×10^3). After 24 hours, the infected or transfected melanoma cells were serum-starved for 18 hours. A 20% FBS solution was added to bottom chambers including a basal medium containing 0.5% BSA. The upper chamber wells were each filled with a basal medium including 0.5% BSA. The Transwell chamber was incubated for 12 hours in a 37° C./5% CO2 incubator. After the incubation, the non-migrating cells at the top of the filter were removed. The cells that migrated onto the bottom of filter were fixed and stained with 0.6% hematoxylin and 0.5% eosin. The stained cells were photographed and counted. The number of migrating cells was averaged from 3 wells. […]

COc1ccc(O)c(C(C)(C)C)c1 [butylated hydroxyanisole]
VEGF-dependent activation of VEGFR2 and ERK [1]: did not induce

C=CCN1C(=O)C(S)N(CC=C)C(=O)C1S (stereo not shown) [Compound A5R, 3,6-dimercapto-1,4-diallylpiperazine-2,5-dione]
initial reaction rate for hydrogen peroxide reduction compared to the corresponding oxidized type [2]: higher intial reaction rates | VEGF-induced proliferation and chemotactic transmigration of HAECs, impaired by PrxII knockdown [3]: no significant changes | proliferation and chemotactic transmigration of HASMCs in response to PDGF, enhanced by PrxII knockdown [4]: no significant changes

CS[C@]1(CO)C(=O)N2[C@H]3C(=CC=C[C@@H]3O)C[C@@]2(SC)C(=O)N1C [bis(methylthio)gliotoxin, Bis(methylthio)gliotoxin]
intimal hyperplasia (ratio of intima versus media, HE staining) [5]: did not suppress | hydrogen peroxide-reducing (peroxidase) activity in the presence of a Trx/TR system, in words [2]: not observed

CN1C(=O)[C@]2(Cc3cn([C@]45C[C@@]67SS[C@@](CO)(C(=O)N6[C@H]4Nc4ccccc45)N(C)C7=O)c4ccccc34)SS[C@@]1(CO)C(=O)N2C [chetomin]
toxicity (cell viability) [6]: toxicity was not shown | hydrogen peroxide-reducing activity in the presence of a GSH/GR system [7]: 2.53 ± 0.79 nmol/min | activity in the presence of a Trx/TR system relative to the activity of GT [2]: approximately two-fold higher | hydrogen peroxide-reducing activity in the presence of a Trx/TR system ([2]; 25 μM ETP compound, 30° C., NADPH oxidation at 340 nm): 8.62 ± 0.51 nmol/min | metastasis of B16F10 melanoma cells to lung (tumor nodules) [8]: significantly reduced | proliferation and migration responding to serum stimulation, SK28 [9]: effectively impeded

CN1C(=O)C(S)N(C)C(=O)C1S (stereo not shown) [Compound A2R, 3,6-dimercapto-1,4-dimethylpiperazine-2,5-dione]
initial reaction rate for hydrogen peroxide reduction compared to the corresponding oxidized type [2]: higher intial reaction rates | VEGF-induced proliferation and chemotactic transmigration of HAECs, impaired by PrxII knockdown [3]: no significant changes | proliferation and chemotactic transmigration of HASMCs in response to PDGF, enhanced by PrxII knockdown [4]: no significant changes

CC(=O)N[C@@H](CS)C(=O)O [N-acetylcysteine]
VEGF-dependent activation of VEGFR2 and ERK [1]: did not induce
